Where a SMILES comes first, the peptide text is derived from it. The star is where a group is joined. Succinyl(4-O-cholesteryl) = CC(C)CCC[C@@H](C)[C@H]1CC[C@H]2[C@@H]3CC=C4C[C@@H](OC(=O)CCC(=O)*)CC[C@]4(C)[C@H]3CC[C@]12C
Key:
[1] = Cytotoxicity test in HEp-2 cells (CCK8 cell viability); format: cell-based; details: human; HEp-2 cells, CCK8, 1 day; read-out: CC50
Outline: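 Compound dilutions (final DMSO 0.5%) were applied for 1 day to HEp-2 cells plated at 30,000 per well the day before. CCK8 signal gave survival relative to cell and medium controls, and a four-parameter log(inhibitor)-response fit yielded CC50.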

RSV A2 virus strain = experiment: Cotton rat RSV A2 challenge protection, lung nucleic acid load by RT-qPCR; format: in vivo; details: cotton rats; for Nucleic acid load RT-qPCR detection results Log10 mean (copy number/gram of lung tissue): tracheal nebulization 1 mg/kg QD for 5 days, lung collected 2 h after final administration on Day 4; for effect on viral titer in lung tissue (in words): tracheal nebulization once daily for 5 days
From the text: Female cotton rats were from Shanghai Yishang Biotechnology Co., Ltd. The RSV A2 virus strain was from the ATCC, with a catalog number VR-1540. RT-qPCR primer+probe primer were supplied by Qingke Biotechnology Co., Ltd, with batch number TSP20241227-025-00187. The RT-qPCR standard was provided by Vazyme, with batch number 20241008.
Female cotton rats (6-8 weeks old) were grouped based on body weight (n=5). All animals were intranasally challenged with RSV on Day 0 at a challenge dosage of […] pfu (50 μL) per animal. Administration began 1 h after Day 0 challenge; the polypeptide sample, positive control, and solvent control were administered via tracheal nebulization once daily for 5 consecutive days. Lung tissue was collected from all animals 2 h after the final administration on Day 4. Left lung tissue (including partial trachea) was rapidly frozen in a virus protection solution with a 10-fold volume and stored below −70° C.; and the viral titer was detected with RT-qPCR.
First, sample homogenization and lung tissue RNA extraction were performed, and the supernatant was taken from the tissue sample that was homogenized using a tissue homogenizer (maintaining a low-temperature environment). The approximately 100 μL of the homogenate supernatant was taken, and total tissue RNA was extracted by using a VeZol reagent-chloroform-water phase-magnetic bead method, and dissolved in RNase-free water. The RT-qPCR reaction system was prepared as follows: a one-step RT-qPCR reaction system was prepared by using an RNA template, a probe, a primer pair, an RT-qPCR buffer, and the RNase-free water; each sample was tested in duplicated wells, with each well containing 20 μL of the one-step RT-qPCR reaction system; a quantitative standard curve well (RSV A2 N gene full-length plasmid), a positive quality control well, and a negative quality control well were arranged at the same time. Then, amplification programs were set according to reverse transcription, pre-denaturation, and cyclic amplification, and amplification data was collected by using a real-time fluorescence quantification PCR instrument, and a mean CT value for duplicated wells was calculated. The CT value from the test results for each sample was substituted into a quantitative standard curve to calculate a copy number. A calculation formula for RSV viral load (copy number/gram of lung tissue) was: sample viral load (copy number/gram of lung tissue)=copy number/relative tissue input (g).
One hour after RSV A2 challenge in cotton rats, compounds 13, 14, 17, 19, 20, 21, 26, 27, 28, and 40 were administered via tracheal nebulization once daily for 5 consecutive days; and 2 h after the final administration, lung tissue was collected from all groups for viral titer detection, and results were shown in Table 4.

hMPV-N46 (127-172) = biological target: T1, hMPV-N46 (127-172) (Human metapneumovirus, UniProt Q6WB98); experiment: SPR affinity to hMPV-N46 coupled on CM5 chip; format: binding
T1 construct: hMPV-N46 (127-172)
T1 sequence (Q6WB98 127-172): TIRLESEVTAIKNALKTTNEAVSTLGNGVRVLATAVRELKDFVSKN
Method: hMPV and hPIV were two viruses having a typical Class I fusion protein-F protein. An F protein precursor F0 was cracked into F1 and F2 subunits. […] When the compound flowed through a chip surface, changes in an SPR signal were monitored in real time, binding and dissociation processes were recorded, and a binding rate constant (ka) and a dissociation rate constant (kd) were further obtained through kinetic analysis, thereby calculating an equilibrium dissociation constant (KD=kd/ka).
A CM5 chip with a catalog number 29149603, an amino coupling reagent kit with a catalog number BR100050, HBS-EP+Buffer (10×), sodium acetate (pH 4.0), and a 10 mM glycine-HCl buffer (pH 2.0) were all purchased from GE Health.
CM5 chip coupling: Channels 2 and 4 of the CM5 chip were activated for 7 min by using a freshly-prepared mixture of 50 mM Hydroxy succinimide (NHS) and 200 mM 1-(3-Dimethylaminopropyl)-3-ethylcarbodiimide (EDC) according to 1:1; and then, hMPV-N46 or hPIV-N51 was diluted and dissolved with sodium acetate with 4.0 pH to a concentration of 30 μM, with a flow rate of 10 μl/min and time of 600 s. An experimental buffer was HBS-EP+buffer (1×). Finally, the chip was blocked with 1 M ethanolamine. The instrument was set to a temperature of 25° C.
Affinity detection: the buffer used in the experiment was HBS-EP+buffer (1×), and a multi-cycle dynamic mode was used. Channels 1 and 3 of the chip served as blank reference channels; polypeptides to be detected sequentially flowed through Channels 2 and 4 at concentrations of 0 μM, 0.04 µM, 0.12 µM, 0.37 μM, 1.11 µM, 3.33 µM, 10 µM, and 30 μM; the flow rate was 30 μl/min, binding was performed for 180 s, and dissociation was performed for 120 s. Finally, the chip was regenerated by injecting 10 mM glycine (pH 2.0). The instrument was set to a temperature of 25° C.

Row | Compound | CC50 at 1 day [1] [µM] | Nucleic acid load RT-qPCR detection results Log10 mean (copy number/gram of lung tissue) (RSV A2 virus strain) | effect on viral titer in lung tissue (in words) (RSV A2 virus strain) | Kd (hMPV-N46 (127-172)) [µM]
1 | CC[C@H](C)[C@H](NC(=O)[C@H](CCCCN)NC(=O)[C@H](CCCCN)NC(=O)[C@H](CC(C)C)NC(=O)[C@H](CO)NC(=O)[C@H](CCC(=O)O)NC(=O)[C@H](CCC(=O)O)NC(=O)[C@@H](NC(=O)[C@H](CCCCN)NC(=O)[C@H](CCCCN)NC(=O)[C@H](CC(N)=O)NC(=O)[C@@H](NC(=O)[C@H](CCC(=O)O)NC(=O)[C@H](CCC(=O)O)NC(=O)[C@@H](NC(=O)[C@H](CCCCN)NC(=O)[C@H](CCCCN)NC(=O)[C@H](CC(=O)O)NC(=O)[C@H](Cc1ccccc1)NC(=O)[C@H](CCC(=O)O)NC(=O)[C@H](CC(=O)O)NC(=O)[C@H](Cc1c[nH]c2ccccc12)NC(C)=O)[C@@H](C)CC)C(C)C)[C@@H](C)CC)C(=O)N[C@@H](CCC(=O)O)C(=O)N[C@@H](CCC(=O)O)C(=O)N[C@@H](CO)C(=O)N[C@@H](CC(=O)O)C(=O)N[C@@H](CCCCN)C(=O)N[C@@H](CCCCN)C(=O)N[C@@H](CC(C)C)C(=O)N[C@@H](CCC(=O)O)C(=O)N[C@@H](C)C(=O)N[C@@H](C)C(=O)N[C@@H](C)C(=O)N[C@@H](CCCCN)C(=O)N[C@@H](CCCCNC(=O)CCC(=O)O[C@H]1CC[C@@]2(C)C(=CC[C@H]3[C@@H]4CC[C@H]([C@H](C)CCCC(C)C)[C@@]4(C)CC[C@@H]32)C1)C(N)=O [Compound 13] (Ac-WDEFDKKIEEVNKKIEESLKKIEESDKKLEAAAKK(Succinyl(4-O-cholesteryl))-NH2) | 30.7 | 7.82 Log10 copy number/gram of lung | significantly reduce the viral titer in lung tissue | 3.21
2 | CC[C@H](C)[C@H](NC(=O)[C@H](CCCCN)NC(=O)[C@H](CCCCN)NC(=O)[C@H](CC(C)C)NC(=O)[C@H](CO)NC(=O)[C@H](CCC(=O)O)NC(=O)[C@H](CCC(=O)O)NC(=O)[C@@H](NC(=O)[C@H](CCCCN)NC(=O)[C@H](CCCCN)NC(=O)[C@H](CC(N)=O)NC(=O)[C@@H](NC(=O)[C@H](CCC(=O)O)NC(=O)[C@H](CCC(=O)O)NC(=O)[C@@H](NC(=O)[C@H](CCCCN)NC(=O)[C@H](CCCCN)NC(=O)[C@H](CC(=O)O)NC(=O)[C@H](Cc1ccccc1)NC(=O)[C@H](CCC(=O)O)NC(=O)[C@H](CC(=O)O)NC(=O)[C@H](CO)NC(C)=O)[C@@H](C)CC)C(C)C)[C@@H](C)CC)C(=O)N[C@@H](CCC(=O)O)C(=O)N[C@@H](CCC(=O)O)C(=O)N[C@@H](CO)C(=O)N[C@@H](CC(=O)O)C(=O)N[C@@H](CCCCN)C(=O)N[C@@H](CCCCN)C(=O)N[C@@H](CC(C)C)C(=O)NCC(=O)N[C@@H](CO)C(=O)NCC(=O)N[C@@H](CO)C(=O)NCC(=O)N[C@@H](CCCCNC(=O)CCC(=O)O[C@H]1CC[C@@]2(C)C(=CC[C@H]3[C@@H]4CC[C@H]([C@H](C)CCCC(C)C)[C@@]4(C)CC[C@@H]32)C1)C(N)=O [Compound 20] (Ac-SDEFDKKIEEVNKKIEESLKKIEESDKKLGSGSGK(Succinyl(4-O-cholesteryl))-NH2) | 29 | 8.55 Log10 copy number/gram of lung | significantly reduce the viral titer in lung tissue | 19.1
3 | CC[C@H](C)[C@H](NC(=O)[C@H](CO)NC(=O)[C@H](C)NC(=O)[C@H](CC(=O)O)NC(=O)[C@H](Cc1ccccc1)NC(=O)[C@H](CCC(=O)O)NC(=O)[C@H](CC(=O)O)NC(C)=O)C(=O)N[C@@H](CO)C(=O)N[C@@H](CCC(N)=O)C(=O)N[C@H](C(=O)N[C@@H](CC(N)=O)C(=O)N[C@@H](CCC(=O)O)C(=O)N[C@@H](CCCCN)C(=O)N[C@H](C(=O)N[C@@H](CC(N)=O)C(=O)N[C@@H](CCC(N)=O)C(=O)N[C@@H](CO)C(=O)N[C@@H](CC(C)C)C(=O)N[C@@H](CCC(=O)O)C(=O)N[C@@H](CCC(=O)O)C(=O)N[C@H](C(=O)N[C@@H](CCCNC(=N)N)C(=O)N[C@@H](CCCCN)C(=O)N[C@@H](CO)C(=O)N[C@@H](CC(=O)O)C(=O)N[C@@H](CCC(=O)O)C(=O)N[C@@H](CC(C)C)C(=O)N[C@@H](CC(C)C)C(=O)N[C@@H](Cc1c[nH]cn1)C(=O)N[C@@H](CC(N)=O)C(=O)N[C@@H](CCC(=O)O)C(=O)N[C@@H](C)C(=O)N[C@@H](C)C(=O)N[C@@H](C)C(=O)N[C@@H](CCCCN)C(=O)N[C@@H](CCCCNC(=O)CCC(=O)O[C@H]1CC[C@@]2(C)C(=CC[C@H]3[C@@H]4CC[C@H]([C@H](C)CCCC(C)C)[C@@]4(C)CC[C@@H]32)C1)C(N)=O)[C@@H](C)CC)[C@@H](C)CC)C(C)C [Compound 28] (Ac-DEFDASISQVNEKINQSLEEIRKSDELLHNEAAAKK(Succinyl(4-O-cholesteryl))-NH2) | 8.8 | 7.76 Log10 copy number/gram of lung | significantly reduce the viral titer in lung tissue | 0.209
4 | CC[C@H](C)[C@H](NC(=O)[C@H](CCCCN)NC(=O)[C@H](CCCCN)NC(=O)[C@H](CC(C)C)NC(=O)[C@H](CO)NC(=O)[C@H](CCC(=O)O)NC(=O)[C@H](CCC(=O)O)NC(=O)[C@@H](NC(=O)[C@H](CCCCN)NC(=O)[C@H](CCCCN)NC(=O)[C@H](CC(N)=O)NC(=O)[C@@H](NC(=O)[C@H](CCC(=O)O)NC(=O)[C@H](CCC(=O)O)NC(=O)[C@@H](NC(=O)[C@H](CCCCN)NC(=O)[C@H](CCCCN)NC(=O)[C@H](CC(=O)O)NC(=O)[C@H](Cc1ccccc1)NC(=O)[C@H](CCC(=O)O)NC(=O)[C@H](CC(=O)O)NC(=O)[C@H](Cc1c[nH]c2ccccc12)NC(C)=O)[C@@H](C)CC)C(C)C)[C@@H](C)CC)C(=O)N[C@@H](CCC(=O)O)C(=O)N[C@@H](CCC(=O)O)C(=O)N[C@@H](CO)C(=O)N[C@@H](CC(=O)O)C(=O)N[C@@H](CCCCN)C(=O)N[C@@H](CCCCN)C(=O)N[C@@H](CC(C)C)C(=O)N[C@@H](CCC(=O)O)C(=O)N[C@@H](CCC(=O)O)C(=O)N[C@H](C(=O)N[C@@H](CC(N)=O)C(=O)N[C@@H](C)C(=O)N[C@@H](CCC(=O)O)C(=O)N[C@@H](C)C(=O)N[C@@H](C)C(=O)N[C@@H](C)C(=O)N[C@@H](CCCCN)C(=O)N[C@@H](CCCCNC(=O)CCC(=O)O[C@H]1CC[C@@]2(C)C(=CC[C@H]3[C@@H]4CC[C@H]([C@H](C)CCCC(C)C)[C@@]4(C)CC[C@@H]32)C1)C(N)=O)C(C)C [Compound 40] (Ac-WDEFDKKIEEVNKKIEESLKKIEESDKKLEEVNAEAAAKK(Succinyl(4-O-cholesteryl))-NH2) | 13.1 | 7.71 Log10 copy number/gram of lung | significantly reduce the viral titer in lung tissue | 2.47
5 | Ac-FDEEISQVNEKINQSLAFIRKSDELLHNVNAGKSTTEAAAKK(Succinyl(4-O-cholesteryl))-NH2 [Compound 26] | > 100 | 7.78 Log10 copy number/gram of lung | significantly reduce the viral titer in lung tissue | 2.15

Reference: patent US20260250325A1, “Antiviral Polypeptide Membrane Fusion Inhibitor, and Preparation Method and Application Thereof” (priority 2025, published 2026)
